{"source": "ChEMBL document CHEMBL5465560", "about": "“Selectivity Literature for EUbOPEN Chemogenomic Library” (2024)", "key": {"[1]": {"target": "Dual specificity mitogen-activated protein kinase kinase 1 (Homo sapiens, UniProt Q02750)", "sequence (Q02750 whole entry)": "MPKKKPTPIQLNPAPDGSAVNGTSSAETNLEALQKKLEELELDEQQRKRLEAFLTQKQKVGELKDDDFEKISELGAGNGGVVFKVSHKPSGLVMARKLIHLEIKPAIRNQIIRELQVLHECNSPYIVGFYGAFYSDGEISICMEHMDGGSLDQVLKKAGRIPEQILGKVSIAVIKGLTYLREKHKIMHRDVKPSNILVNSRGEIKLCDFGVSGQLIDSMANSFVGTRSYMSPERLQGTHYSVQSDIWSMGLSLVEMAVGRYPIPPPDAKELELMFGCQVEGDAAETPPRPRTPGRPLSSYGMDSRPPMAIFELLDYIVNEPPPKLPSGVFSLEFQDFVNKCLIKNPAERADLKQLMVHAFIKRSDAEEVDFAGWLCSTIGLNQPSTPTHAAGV", "experiment": "Selectivity interaction (KinomeScan (DiscoverX)) EUB0000092b MAP2K1", "conditions": "at 10 µM"}, "[2]": {"target": "T1, Phosphatidylinositol 3-kinase C2 domain-containing subunit gamma (Homo sapiens) (UniProt O75747)", "T1 sequence (whole entry)": "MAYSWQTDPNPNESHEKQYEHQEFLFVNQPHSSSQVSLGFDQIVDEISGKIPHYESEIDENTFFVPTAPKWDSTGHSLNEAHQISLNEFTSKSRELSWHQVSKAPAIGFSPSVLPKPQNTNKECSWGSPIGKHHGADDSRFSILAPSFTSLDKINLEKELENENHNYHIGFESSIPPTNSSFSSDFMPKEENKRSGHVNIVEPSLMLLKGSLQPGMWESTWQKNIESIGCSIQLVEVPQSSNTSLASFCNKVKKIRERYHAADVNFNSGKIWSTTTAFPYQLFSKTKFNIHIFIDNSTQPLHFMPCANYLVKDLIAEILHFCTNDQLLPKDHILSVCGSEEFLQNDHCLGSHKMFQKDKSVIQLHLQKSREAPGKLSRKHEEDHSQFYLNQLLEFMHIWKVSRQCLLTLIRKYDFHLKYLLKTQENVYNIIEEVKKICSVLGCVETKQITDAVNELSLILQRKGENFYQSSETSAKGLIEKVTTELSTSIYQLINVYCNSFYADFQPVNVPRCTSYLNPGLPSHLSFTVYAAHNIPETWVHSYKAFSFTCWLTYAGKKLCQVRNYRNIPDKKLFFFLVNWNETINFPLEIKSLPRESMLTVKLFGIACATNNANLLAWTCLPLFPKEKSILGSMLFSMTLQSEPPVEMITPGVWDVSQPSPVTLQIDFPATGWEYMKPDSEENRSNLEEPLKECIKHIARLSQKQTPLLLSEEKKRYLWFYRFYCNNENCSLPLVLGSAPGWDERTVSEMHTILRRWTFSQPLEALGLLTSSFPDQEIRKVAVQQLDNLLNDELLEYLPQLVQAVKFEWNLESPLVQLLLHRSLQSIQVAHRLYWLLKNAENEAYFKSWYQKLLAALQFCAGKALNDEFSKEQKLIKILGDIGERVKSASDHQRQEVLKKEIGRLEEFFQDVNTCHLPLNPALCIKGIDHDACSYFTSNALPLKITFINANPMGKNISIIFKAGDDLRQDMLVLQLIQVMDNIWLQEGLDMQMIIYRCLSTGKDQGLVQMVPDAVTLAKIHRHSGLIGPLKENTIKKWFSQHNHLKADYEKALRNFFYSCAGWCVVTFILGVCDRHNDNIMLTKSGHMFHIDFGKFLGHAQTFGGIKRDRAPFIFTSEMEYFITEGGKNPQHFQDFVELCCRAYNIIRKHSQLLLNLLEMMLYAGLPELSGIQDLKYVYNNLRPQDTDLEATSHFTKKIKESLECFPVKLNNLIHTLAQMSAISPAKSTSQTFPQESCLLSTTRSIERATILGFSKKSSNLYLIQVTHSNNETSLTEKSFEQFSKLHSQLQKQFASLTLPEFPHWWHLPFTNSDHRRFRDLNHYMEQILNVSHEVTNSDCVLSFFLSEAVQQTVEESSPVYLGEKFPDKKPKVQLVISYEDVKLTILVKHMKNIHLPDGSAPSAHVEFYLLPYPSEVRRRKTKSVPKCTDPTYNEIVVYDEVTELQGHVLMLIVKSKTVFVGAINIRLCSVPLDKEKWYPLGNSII", "experiment": "Selectivity interaction (KinomeScan (DiscoverX)) EUB0000092b PIK3C2G", "conditions": "at 10 µM"}, "[3]": {"target": "cAMP-dependent protein kinase catalytic subunit beta (Homo sapiens) (UniProt P22694)", "experiment": "Selectivity interaction (KinomeScan (DiscoverX)) EUB0001079a PRKACB", "conditions": "at 1 µM"}, "[4]": {"target": "Serine/threonine-protein kinase 32C (Homo sapiens) (UniProt Q86UX6)", "sequence (Q86UX6 whole entry)": "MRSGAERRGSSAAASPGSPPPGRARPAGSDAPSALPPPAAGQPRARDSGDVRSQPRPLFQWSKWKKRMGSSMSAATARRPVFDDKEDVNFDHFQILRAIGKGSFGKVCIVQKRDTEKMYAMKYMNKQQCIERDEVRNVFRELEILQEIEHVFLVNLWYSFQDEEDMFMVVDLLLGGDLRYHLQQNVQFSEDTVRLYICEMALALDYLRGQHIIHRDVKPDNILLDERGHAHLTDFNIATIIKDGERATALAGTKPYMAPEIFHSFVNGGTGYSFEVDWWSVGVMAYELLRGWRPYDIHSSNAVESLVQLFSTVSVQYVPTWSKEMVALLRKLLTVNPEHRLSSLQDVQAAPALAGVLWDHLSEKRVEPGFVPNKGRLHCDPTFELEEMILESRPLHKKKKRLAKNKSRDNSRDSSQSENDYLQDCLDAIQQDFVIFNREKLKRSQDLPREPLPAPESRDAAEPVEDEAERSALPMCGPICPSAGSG", "experiment": "Selectivity interaction (KinomeScan (DiscoverX)) EUB0001079a STK32C", "conditions": "at 1 µM"}, "[5]": {"target": "Tyrosine-protein kinase BAZ1B (Homo sapiens) (UniProt Q9UIG0)", "sequence (Q9UIG0 whole entry)": "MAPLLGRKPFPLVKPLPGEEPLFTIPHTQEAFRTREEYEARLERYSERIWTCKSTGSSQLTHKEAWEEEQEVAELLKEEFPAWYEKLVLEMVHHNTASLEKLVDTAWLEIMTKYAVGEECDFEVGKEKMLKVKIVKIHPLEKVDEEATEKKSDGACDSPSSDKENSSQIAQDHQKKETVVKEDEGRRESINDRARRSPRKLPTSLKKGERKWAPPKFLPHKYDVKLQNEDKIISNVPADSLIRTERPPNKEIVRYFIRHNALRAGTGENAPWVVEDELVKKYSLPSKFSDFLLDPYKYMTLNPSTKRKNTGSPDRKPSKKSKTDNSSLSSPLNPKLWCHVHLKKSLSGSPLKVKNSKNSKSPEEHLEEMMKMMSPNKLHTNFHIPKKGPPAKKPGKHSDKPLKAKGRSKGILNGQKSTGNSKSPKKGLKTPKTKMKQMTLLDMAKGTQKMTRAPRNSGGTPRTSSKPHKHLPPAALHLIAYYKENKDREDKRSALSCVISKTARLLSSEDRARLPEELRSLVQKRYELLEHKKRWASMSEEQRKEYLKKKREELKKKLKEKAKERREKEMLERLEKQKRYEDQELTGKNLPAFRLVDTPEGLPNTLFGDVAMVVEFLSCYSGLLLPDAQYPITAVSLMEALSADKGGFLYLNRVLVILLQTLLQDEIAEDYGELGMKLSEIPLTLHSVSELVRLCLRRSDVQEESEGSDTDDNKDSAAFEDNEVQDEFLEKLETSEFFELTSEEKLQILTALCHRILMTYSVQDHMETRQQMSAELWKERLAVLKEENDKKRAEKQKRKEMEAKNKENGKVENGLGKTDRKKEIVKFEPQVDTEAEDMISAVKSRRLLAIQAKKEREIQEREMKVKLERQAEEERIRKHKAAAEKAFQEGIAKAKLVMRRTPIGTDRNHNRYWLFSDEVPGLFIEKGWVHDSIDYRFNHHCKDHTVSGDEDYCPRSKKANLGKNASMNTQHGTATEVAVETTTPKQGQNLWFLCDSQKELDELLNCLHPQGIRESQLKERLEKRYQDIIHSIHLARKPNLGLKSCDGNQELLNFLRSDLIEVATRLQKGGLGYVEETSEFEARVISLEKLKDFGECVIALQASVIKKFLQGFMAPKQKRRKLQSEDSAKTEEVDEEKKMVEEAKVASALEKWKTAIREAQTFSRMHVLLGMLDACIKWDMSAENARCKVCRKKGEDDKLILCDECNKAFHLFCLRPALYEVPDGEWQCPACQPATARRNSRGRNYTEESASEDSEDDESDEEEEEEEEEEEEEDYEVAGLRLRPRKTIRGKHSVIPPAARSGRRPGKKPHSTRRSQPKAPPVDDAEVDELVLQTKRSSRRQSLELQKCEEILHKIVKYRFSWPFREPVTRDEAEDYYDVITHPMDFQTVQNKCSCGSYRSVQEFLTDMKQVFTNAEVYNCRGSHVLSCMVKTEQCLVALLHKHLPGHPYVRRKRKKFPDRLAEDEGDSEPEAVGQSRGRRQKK", "experiment": "Selectivity interaction (Human bromodomain panel (DSF assay)) EUB0000233b BAZ1B"}, "[6]": {"target": "Serine/threonine-protein kinase PLK3 (Homo sapiens, UniProt Q9H4B4)", "sequence (Q9H4B4 whole entry, looked up)": "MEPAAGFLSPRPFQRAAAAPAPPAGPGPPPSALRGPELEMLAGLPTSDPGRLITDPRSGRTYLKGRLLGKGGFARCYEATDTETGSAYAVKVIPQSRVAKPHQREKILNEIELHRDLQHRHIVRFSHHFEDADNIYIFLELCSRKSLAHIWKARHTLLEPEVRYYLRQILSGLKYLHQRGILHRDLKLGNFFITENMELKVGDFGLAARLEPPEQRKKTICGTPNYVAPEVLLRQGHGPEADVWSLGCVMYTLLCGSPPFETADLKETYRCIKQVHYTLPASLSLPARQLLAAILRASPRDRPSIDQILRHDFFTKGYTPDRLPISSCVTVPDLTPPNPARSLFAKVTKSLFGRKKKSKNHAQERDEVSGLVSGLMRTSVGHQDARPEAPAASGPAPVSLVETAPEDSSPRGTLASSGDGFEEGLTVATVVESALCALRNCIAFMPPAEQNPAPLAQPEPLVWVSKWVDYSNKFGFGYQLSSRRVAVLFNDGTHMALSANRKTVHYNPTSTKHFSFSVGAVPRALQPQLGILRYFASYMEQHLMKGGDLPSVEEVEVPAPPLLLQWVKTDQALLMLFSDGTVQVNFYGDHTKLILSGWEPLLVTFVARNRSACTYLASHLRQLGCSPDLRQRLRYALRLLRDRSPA", "experiment": "Selectivity interaction (KinomeScan (DiscoverX)) EUB0000695a PLK3", "conditions": "at 100 nM"}, "[7]": {"target": "T2, Muscle, skeletal receptor tyrosine-protein kinase (Homo sapiens) (UniProt O15146)", "T2 sequence (whole entry)": "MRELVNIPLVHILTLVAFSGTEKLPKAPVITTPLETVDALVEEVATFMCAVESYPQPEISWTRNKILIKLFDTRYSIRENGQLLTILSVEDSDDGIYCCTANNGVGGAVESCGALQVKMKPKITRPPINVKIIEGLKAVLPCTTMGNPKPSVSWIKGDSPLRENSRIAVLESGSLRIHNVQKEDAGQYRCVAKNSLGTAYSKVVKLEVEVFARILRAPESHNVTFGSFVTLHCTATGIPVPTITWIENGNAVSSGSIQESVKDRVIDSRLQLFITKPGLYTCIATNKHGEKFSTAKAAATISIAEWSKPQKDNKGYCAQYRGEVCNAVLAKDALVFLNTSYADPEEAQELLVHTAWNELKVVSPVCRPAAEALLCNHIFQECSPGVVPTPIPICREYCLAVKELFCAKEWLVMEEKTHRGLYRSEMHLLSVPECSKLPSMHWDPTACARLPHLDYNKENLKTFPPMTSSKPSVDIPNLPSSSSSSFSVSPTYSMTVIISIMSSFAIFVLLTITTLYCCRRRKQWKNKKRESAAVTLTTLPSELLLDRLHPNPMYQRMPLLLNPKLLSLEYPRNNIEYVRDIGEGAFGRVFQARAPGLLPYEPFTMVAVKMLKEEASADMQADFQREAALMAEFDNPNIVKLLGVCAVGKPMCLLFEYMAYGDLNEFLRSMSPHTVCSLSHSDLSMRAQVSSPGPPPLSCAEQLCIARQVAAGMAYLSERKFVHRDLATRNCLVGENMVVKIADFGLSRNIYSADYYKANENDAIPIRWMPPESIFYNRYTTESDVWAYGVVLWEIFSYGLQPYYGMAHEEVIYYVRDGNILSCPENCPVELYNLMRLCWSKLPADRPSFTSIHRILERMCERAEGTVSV", "experiment": "Selectivity interaction (KinomeScan (DiscoverX)) EUB0000045b MUSK"}}}
{"smiles": "CCC(=O)N1CCN(c2ccc(-n3c(=O)ccc4cnc5ccc(-c6cnc7ccccc7c6)cc5c43)cc2C(F)(F)F)CC1", "values": [{"measurement": "% of control", "setting": "[1]", "value": 100, "unit": "%"}, {"measurement": "% of control", "setting": "[2]", "value": 11, "unit": "%"}]}
{"smiles": "Nc1cnc(N2CCc3cc(S(=O)(=O)Nc4c(F)cc(Cl)cc4F)cc(N4CCCC4=O)c32)nc1", "note": "[TP-020n]", "values": [{"measurement": "% of control", "setting": "[3]", "value": 100, "unit": "%"}, {"measurement": "% of control", "setting": "[4]", "value": 100, "unit": "%"}]}
{"smiles": "CN(C)CCCOc1ccc(-c2cc(NCCCn3cccn3)nc(S(C)(=O)=O)n2)cc1", "values": [{"measurement": "dTM", "setting": "[5]", "value": "< 2", "unit": "K"}]}
{"smiles": "Cc1cc(F)c(C(=O)Nc2cccc(-c3nncn3C(C)C)n2)cc1-n1cnc(C2CC2)c1", "values": [{"measurement": "% of control", "setting": "[6]", "value": 100, "unit": "%"}]}
{"smiles": "C=CC(=O)Nc1cc(-n2c(=O)ccc3cnc4ccc(-c5ccc(NS(C)(=O)=O)cc5)cc4c32)ccc1C", "values": [{"measurement": "% of control", "setting": "[7]; at 1 µM", "value": 100, "unit": "%"}, {"measurement": "% of control", "setting": "[7]; at 10 µM", "value": 82, "unit": "%"}]}
